This is an account of results in BindingDB's records for doi:10.1021/jm00095a011 (Centre De Recherche De Vitry-Alfortville, 1992).

A short description of test [1]: Capability to inhibit the binding of [3H]LTB4 to guinea pig spleen Leukotriene B4 receptor at the concentration of 10e-5 M.
Test [2] in a line: Capability of compound to inhibit the binding of [3H]LTB4 to guinea pig spleen Leukotriene B4 receptor at the concentration of 10e-5 M.
A short description of test [3]: Capability of compound to inhibit the binding of [3H]LTB4 to guinea pig spleen Leukotriene B4 receptors at the concentration of 10e-5 M.

Structures are written as SMILES.

As for `O=C(O)CCCCc1sccc1CCCc1ccccc1`, the IC50 (in general, the midpoint of a concentration-inhibition curve) in test [1] is 3500 nM.

With `O=C(O)CCCCCCc1ccsc1CCCc1ccc(Cl)cc1`, the IC50 in test [1] was 1000 nM.

In turn, `O=C(O)CCCCCCc1sc(-c2ccccc2)cc1CCCc1ccccc1` showed an IC50 in test [1] of 1000 nM. This counts as single-digit micromolar.

In turn, `O=C(O)CCCCCCc1csc(CCc2ccccc2)c1` returned an IC50 in test [1] of 10000 nM.

In test [1], `O=C(O)CCCCCCc1csc(Cc2ccccc2)c1` returned an IC50 of 10000 nM. This counts as double-digit micromolar.

In turn, `O=C(O)CCCCCC(O)c1sccc1CCCc1ccccc1` (stereo not drawn) had an IC50 in test [1] of 6000 nM. Compared with the last compound, the IC50 is about 1.7-fold lower.

Regarding `CC(CCCCCc1sccc1CCCc1ccccc1)C(=O)O` (stereo not drawn), the half-maximal inhibitory concentration (IC50) in test [1] came to 110 nM.

In test [1], `Cc1cc(CCCCCC(C)C(=O)O)c(CCCc2ccccc2)s1` (stereo not drawn) had an IC50 of 300 nM.

Regarding `O=C(O)CCCCCCc1sccc1CCCc1ccccc1`, the IC50 in test [1] was determined as 1000 nM.

Take `Cc1cc(CCCc2ccccc2)c(SCCCCCC(=O)O)s1`: the concentration for half-maximal inhibition (IC50) in test [1] was 3000 nM.

Take `O=C(O)CCCCCCc1csc(CCCc2ccc(Cl)cc2)c1`: the half-inhibitory concentration (IC50) in test [1] is 1000 nM. Against the preceding compound, the IC50 is about 3-fold lower.

In test [2], `Cc1cc(CCCc2ccccc2)c(CCCCCC(C)(C)C(=O)O)s1` registered an IC50 of 200 nM.

The compound `O=C(O)CCCCCCc1ccsc1CCCc1ccccc1` displayed a 50% inhibitory concentration (IC50) in test [3] of 1000 nM.

Compound `Cc1cc(CCCc2ccccc2)c(CCCCCC(C)C(=O)O)s1` (stereo not drawn) yielded an IC50 in test [1] of 300 nM.

For the compound `CC(C)(CCCCCc1cc(-c2ccccc2)sc1CCCc1ccccc1)C(=O)O`, the IC50 in test [1] was found to be 1200 nM.

`CC(C)(CCCCCc1sc(-c2ccccc2)cc1CCCc1ccccc1)C(=O)O` gave a half-maximal inhibitory concentration (IC50) in test [1] of 800 nM. This IC50 is about 1.5-fold lower than that of the compound before.

In test [1], `Cc1cc(CCCCCCC(=O)O)c(CCCc2ccccc2)s1` showed an IC50 of 700 nM.

As for `O=C(O)CCCCCCc1csc(CCCc2ccc(O)cc2)c1`, in test [1], the IC50 was 5000 nM.
